Experimental data as given in the NIST ThermoML archive (doi:10.1016/j.fluid.2015.03.016).
“And” between values parts separate entries of the source, which are not always exact repeats. Identical values can stand only once. ± gives the expanded uncertainty stated by the source.

Conditions: Liquid, Vibrating wire viscometry

CCCCOC(=O)CCCCC(=O)OCCCC [dibutyl hexanedioate]
Conditions | viscosity
333.15 K, 5090 kPa | 2.366 ± 0.04 mPa·s
333.15 K, 5100 kPa | 2.361 ± 0.04 mPa·s and 2.362 ± 0.04 mPa·s
333.15 K, 5210 kPa | 2.361 ± 0.044 mPa·s and 2.365 ± 0.043 mPa·s
333.15 K, 5220 kPa | 2.366 ± 0.043 mPa·s
333.15 K, 7790 kPa | 2.42 ± 0.041 mPa·s and 2.421 ± 0.041 mPa·s
333.15 K, 7800 kPa | 2.421 ± 0.041 mPa·s
333.15 K, 10100 kPa | 2.493 ± 0.042 mPa·s
333.15 K, 10120 kPa | 2.495 ± 0.042 mPa·s
333.15 K, 10130 kPa | 2.495 ± 0.042 mPa·s
333.15 K, 10160 kPa | 2.493 ± 0.042 mPa·s
333.15 K, 14860 kPa | 2.621 ± 0.053 mPa·s
333.15 K, 15150 kPa | 2.62 ± 0.053 mPa·s
333.15 K, 15240 kPa | 2.619 ± 0.049 mPa·s
333.15 K, 15260 kPa | 2.625 ± 0.048 mPa·s
333.15 K, 20250 kPa | 2.763 ± 0.046 mPa·s
333.15 K, 20260 kPa | 2.76 ± 0.046 mPa·s
333.15 K, 20270 kPa | 2.761 ± 0.046 mPa·s
333.15 K, 20290 kPa | 2.76 ± 0.046 mPa·s
333.15 K, 29840 kPa | 3.05 ± 0.058 mPa·s
333.15 K, 29880 kPa | 3.043 ± 0.063 mPa·s
333.15 K, 30130 kPa | 3.05 ± 0.064 mPa·s
333.15 K, 30150 kPa | 3.042 ± 0.061 mPa·s
333.15 K, 30230 kPa | 3.047 ± 0.056 mPa·s
333.15 K, 39970 kPa | 3.331 ± 0.055 mPa·s
333.15 K, 40020 kPa | 3.332 ± 0.055 mPa·s
333.15 K, 40070 kPa | 3.33 ± 0.055 mPa·s
333.15 K, 40080 kPa | 3.335 ± 0.055 mPa·s
333.15 K, 49990 kPa | 3.644 ± 0.061 mPa·s
333.15 K, 50000 kPa | 3.638 ± 0.06 mPa·s and 3.636 ± 0.06 mPa·s and 3.632 ± 0.06 mPa·s
333.15 K, 61450 kPa | 4.065 ± 0.07 mPa·s
333.15 K, 61480 kPa | 4.064 ± 0.07 mPa·s
333.15 K, 61600 kPa | 4.055 ± 0.067 mPa·s
333.15 K, 61660 kPa | 4.057 ± 0.069 mPa·s
333.16 K, 2490 kPa | 2.298 ± 0.039 mPa·s
333.16 K, 2580 kPa | 2.299 ± 0.039 mPa·s
333.16 K, 5220 kPa | 2.361 ± 0.044 mPa·s
333.16 K, 7780 kPa | 2.422 ± 0.041 mPa·s
343.14 K, 20120 kPa | 2.335 ± 0.039 mPa·s and 2.332 ± 0.039 mPa·s
343.14 K, 39830 kPa | 2.803 ± 0.047 mPa·s
343.14 K, 39840 kPa | 2.809 ± 0.047 mPa·s
343.14 K, 39860 kPa | 2.807 ± 0.047 mPa·s
343.14 K, 39870 kPa | 2.804 ± 0.047 mPa·s
343.14 K, 39880 kPa | 2.81 ± 0.047 mPa·s
343.14 K, 65480 kPa | 3.489 ± 0.058 mPa·s
343.14 K, 65500 kPa | 3.484 ± 0.058 mPa·s
343.15 K, 1100 kPa | 1.917 ± 0.04 mPa·s and 1.916 ± 0.04 mPa·s
343.15 K, 1170 kPa | 1.915 ± 0.032 mPa·s
343.15 K, 1240 kPa | 1.914 ± 0.032 mPa·s
343.15 K, 1260 kPa | 1.918 ± 0.035 mPa·s and 1.915 ± 0.036 mPa·s
343.15 K, 2480 kPa | 1.949 ± 0.033 mPa·s
343.15 K, 2500 kPa | 1.945 ± 0.033 mPa·s and 1.947 ± 0.033 mPa·s
343.15 K, 2520 kPa | 1.948 ± 0.033 mPa·s
343.15 K, 2530 kPa | 1.95 ± 0.033 mPa·s
343.15 K, 2580 kPa | 1.946 ± 0.033 mPa·s
343.15 K, 4960 kPa | 1.993 ± 0.034 mPa·s
343.15 K, 4970 kPa | 1.994 ± 0.034 mPa·s
343.15 K, 4980 kPa | 1.992 ± 0.034 mPa·s
343.15 K, 4990 kPa | 1.989 ± 0.034 mPa·s
343.15 K, 7500 kPa | 2.054 ± 0.035 mPa·s
343.15 K, 7510 kPa | 2.057 ± 0.035 mPa·s and 2.059 ± 0.035 mPa·s
343.15 K, 7520 kPa | 2.056 ± 0.035 mPa·s
343.15 K, 10030 kPa | 2.118 ± 0.036 mPa·s
343.15 K, 10040 kPa | 2.117 ± 0.036 mPa·s and 2.119 ± 0.036 mPa·s
343.15 K, 10090 kPa | 2.117 ± 0.036 mPa·s
343.15 K, 15220 kPa | 2.224 ± 0.037 mPa·s
343.15 K, 15240 kPa | 2.222 ± 0.037 mPa·s
343.15 K, 15260 kPa | 2.221 ± 0.037 mPa·s
343.15 K, 20040 kPa | 2.334 ± 0.048 mPa·s
343.15 K, 20160 kPa | 2.337 ± 0.039 mPa·s
343.15 K, 20210 kPa | 2.335 ± 0.057 mPa·s
343.15 K, 20240 kPa | 2.332 ± 0.047 mPa·s
343.15 K, 20270 kPa | 2.331 ± 0.042 mPa·s
343.15 K, 20280 kPa | 2.335 ± 0.042 mPa·s
343.15 K, 30090 kPa | 2.562 ± 0.043 mPa·s
343.15 K, 30130 kPa | 2.561 ± 0.043 mPa·s
343.15 K, 30140 kPa | 2.566 ± 0.043 mPa·s
343.15 K, 30150 kPa | 2.561 ± 0.043 mPa·s and 2.564 ± 0.043 mPa·s
343.15 K, 30160 kPa | 2.566 ± 0.043 mPa·s
343.15 K, 39830 kPa | 2.806 ± 0.047 mPa·s
343.15 K, 50080 kPa | 3.08 ± 0.051 mPa·s and 3.083 ± 0.051 mPa·s
343.15 K, 65610 kPa | 3.482 ± 0.058 mPa·s
343.15 K, 65620 kPa | 3.49 ± 0.058 mPa·s
358.15 K, 2510 kPa | 1.559 ± 0.026 mPa·s
358.15 K, 2520 kPa | 1.559 ± 0.026 mPa·s and 1.56 ± 0.026 mPa·s
358.15 K, 5050 kPa | 1.594 ± 0.037 mPa·s and 1.593 ± 0.037 mPa·s
358.15 K, 5060 kPa | 1.594 ± 0.038 mPa·s and 1.595 ± 0.038 mPa·s
358.15 K, 5240 kPa | 1.601 ± 0.036 mPa·s
358.15 K, 9930 kPa | 1.688 ± 0.029 mPa·s
358.15 K, 10010 kPa | 1.69 ± 0.029 mPa·s
358.15 K, 15060 kPa | 1.769 ± 0.03 mPa·s and 1.766 ± 0.03 mPa·s and 1.764 ± 0.03 mPa·s
358.15 K, 15100 kPa | 1.768 ± 0.03 mPa·s
358.15 K, 15130 kPa | 1.765 ± 0.03 mPa·s
358.15 K, 20130 kPa | 1.863 ± 0.031 mPa·s
358.15 K, 30280 kPa | 2.045 ± 0.034 mPa·s
358.15 K, 30290 kPa | 2.042 ± 0.034 mPa·s and 2.044 ± 0.034 mPa·s
358.15 K, 30300 kPa | 2.041 ± 0.034 mPa·s
358.15 K, 30310 kPa | 2.043 ± 0.034 mPa·s
358.15 K, 30320 kPa | 2.046 ± 0.034 mPa·s
358.15 K, 39960 kPa | 2.223 ± 0.037 mPa·s
358.15 K, 39990 kPa | 2.219 ± 0.037 mPa·s
358.15 K, 40010 kPa | 2.219 ± 0.037 mPa·s
358.15 K, 40040 kPa | 2.222 ± 0.037 mPa·s
358.15 K, 40060 kPa | 2.219 ± 0.037 mPa·s
358.16 K, 1080 kPa | 1.521 ± 0.026 mPa·s
358.16 K, 1090 kPa | 1.524 ± 0.026 mPa·s and 1.523 ± 0.026 mPa·s and 1.521 ± 0.026 mPa·s
358.16 K, 2510 kPa | 1.559 ± 0.026 mPa·s
358.16 K, 2540 kPa | 1.558 ± 0.026 mPa·s
358.16 K, 5180 kPa | 1.6 ± 0.027 mPa·s
358.16 K, 5200 kPa | 1.597 ± 0.027 mPa·s
358.16 K, 5240 kPa | 1.599 ± 0.037 mPa·s
358.16 K, 7560 kPa | 1.645 ± 0.028 mPa·s and 1.644 ± 0.028 mPa·s and 1.643 ± 0.028 mPa·s
358.16 K, 20120 kPa | 1.868 ± 0.031 mPa·s and 1.866 ± 0.031 mPa·s
358.16 K, 20130 kPa | 1.868 ± 0.031 mPa·s
358.16 K, 20160 kPa | 1.863 ± 0.031 mPa·s
358.16 K, 40080 kPa | 2.223 ± 0.037 mPa·s
358.16 K, 50160 kPa | 2.426 ± 0.041 mPa·s and 2.429 ± 0.041 mPa·s
358.16 K, 50170 kPa | 2.424 ± 0.04 mPa·s and 2.427 ± 0.041 mPa·s
358.16 K, 65550 kPa | 2.761 ± 0.046 mPa·s and 2.757 ± 0.046 mPa·s and 2.758 ± 0.046 mPa·s
373.14 K, 2490 kPa | 1.265 ± 0.022 mPa·s
373.14 K, 10000 kPa | 1.376 ± 0.024 mPa·s and 1.374 ± 0.023 mPa·s
373.14 K, 15040 kPa | 1.442 ± 0.025 mPa·s
373.14 K, 15050 kPa | 1.443 ± 0.025 mPa·s
373.14 K, 29940 kPa | 1.668 ± 0.028 mPa·s
373.15 K, 1060 kPa | 1.253 ± 0.021 mPa·s
373.15 K, 1120 kPa | 1.255 ± 0.021 mPa·s
373.15 K, 1160 kPa | 1.254 ± 0.021 mPa·s
373.15 K, 2590 kPa | 1.264 ± 0.022 mPa·s
373.15 K, 2600 kPa | 1.264 ± 0.022 mPa·s
373.15 K, 5080 kPa | 1.302 ± 0.022 mPa·s and 1.301 ± 0.022 mPa·s and 1.303 ± 0.022 mPa·s
373.15 K, 7600 kPa | 1.342 ± 0.023 mPa·s and 1.341 ± 0.023 mPa·s
373.15 K, 7610 kPa | 1.341 ± 0.023 mPa·s
373.15 K, 10090 kPa | 1.375 ± 0.024 mPa·s
373.15 K, 10130 kPa | 1.374 ± 0.023 mPa·s
373.15 K, 15060 kPa | 1.441 ± 0.025 mPa·s
373.15 K, 15070 kPa | 1.443 ± 0.025 mPa·s
373.15 K, 20220 kPa | 1.518 ± 0.026 mPa·s
373.15 K, 20230 kPa | 1.518 ± 0.026 mPa·s
373.15 K, 20250 kPa | 1.516 ± 0.026 mPa·s
373.15 K, 29920 kPa | 1.669 ± 0.028 mPa·s
373.15 K, 29980 kPa | 1.667 ± 0.028 mPa·s
373.15 K, 30000 kPa | 1.667 ± 0.028 mPa·s
373.15 K, 50030 kPa | 1.976 ± 0.033 mPa·s [middle of 4 runs]
373.15 K, 65350 kPa | 2.231 ± 0.037 mPa·s and 2.229 ± 0.037 mPa·s
